Measurements: ChEMBL document CHEMBL1138495, “Inhibition of subgenomic hepatitis C virus RNA replication by acridone derivatives: identification of an NS3 helicase inhibitor” (J Med Chem, 2009)
Values after ≈ are worked out from the molar mass of the structure shown. Active and inactive are the calls of the source. No cut-off for these calls is given here.

Assays:
[1] = test system: Bovine viral diarrhea virus 1; assay: Antiviral activity against Bovine viral diarrhea virus infected in MDBK cells assessed as inhibition of virus-induced cytopathic effect after 4 to 5 days by microscopy; type: functional, organism-based; conditions: Bovine viral diarrhea virus isolates and strains
[2] = Cytostatic activity against human HuH5.2 after 3 days by MTS/PMS assay; type: ADME, Huh-5-2; conditions: HuH5.2 cells
[3] = molecular target: DNA topoisomerase 2-alpha (Homo sapiens) (UniProt P11388); assay: Inhibition of human topoisomerase 2
Sequence of DNA topoisomerase 2-alpha (Homo sapiens) (P11388 whole entry): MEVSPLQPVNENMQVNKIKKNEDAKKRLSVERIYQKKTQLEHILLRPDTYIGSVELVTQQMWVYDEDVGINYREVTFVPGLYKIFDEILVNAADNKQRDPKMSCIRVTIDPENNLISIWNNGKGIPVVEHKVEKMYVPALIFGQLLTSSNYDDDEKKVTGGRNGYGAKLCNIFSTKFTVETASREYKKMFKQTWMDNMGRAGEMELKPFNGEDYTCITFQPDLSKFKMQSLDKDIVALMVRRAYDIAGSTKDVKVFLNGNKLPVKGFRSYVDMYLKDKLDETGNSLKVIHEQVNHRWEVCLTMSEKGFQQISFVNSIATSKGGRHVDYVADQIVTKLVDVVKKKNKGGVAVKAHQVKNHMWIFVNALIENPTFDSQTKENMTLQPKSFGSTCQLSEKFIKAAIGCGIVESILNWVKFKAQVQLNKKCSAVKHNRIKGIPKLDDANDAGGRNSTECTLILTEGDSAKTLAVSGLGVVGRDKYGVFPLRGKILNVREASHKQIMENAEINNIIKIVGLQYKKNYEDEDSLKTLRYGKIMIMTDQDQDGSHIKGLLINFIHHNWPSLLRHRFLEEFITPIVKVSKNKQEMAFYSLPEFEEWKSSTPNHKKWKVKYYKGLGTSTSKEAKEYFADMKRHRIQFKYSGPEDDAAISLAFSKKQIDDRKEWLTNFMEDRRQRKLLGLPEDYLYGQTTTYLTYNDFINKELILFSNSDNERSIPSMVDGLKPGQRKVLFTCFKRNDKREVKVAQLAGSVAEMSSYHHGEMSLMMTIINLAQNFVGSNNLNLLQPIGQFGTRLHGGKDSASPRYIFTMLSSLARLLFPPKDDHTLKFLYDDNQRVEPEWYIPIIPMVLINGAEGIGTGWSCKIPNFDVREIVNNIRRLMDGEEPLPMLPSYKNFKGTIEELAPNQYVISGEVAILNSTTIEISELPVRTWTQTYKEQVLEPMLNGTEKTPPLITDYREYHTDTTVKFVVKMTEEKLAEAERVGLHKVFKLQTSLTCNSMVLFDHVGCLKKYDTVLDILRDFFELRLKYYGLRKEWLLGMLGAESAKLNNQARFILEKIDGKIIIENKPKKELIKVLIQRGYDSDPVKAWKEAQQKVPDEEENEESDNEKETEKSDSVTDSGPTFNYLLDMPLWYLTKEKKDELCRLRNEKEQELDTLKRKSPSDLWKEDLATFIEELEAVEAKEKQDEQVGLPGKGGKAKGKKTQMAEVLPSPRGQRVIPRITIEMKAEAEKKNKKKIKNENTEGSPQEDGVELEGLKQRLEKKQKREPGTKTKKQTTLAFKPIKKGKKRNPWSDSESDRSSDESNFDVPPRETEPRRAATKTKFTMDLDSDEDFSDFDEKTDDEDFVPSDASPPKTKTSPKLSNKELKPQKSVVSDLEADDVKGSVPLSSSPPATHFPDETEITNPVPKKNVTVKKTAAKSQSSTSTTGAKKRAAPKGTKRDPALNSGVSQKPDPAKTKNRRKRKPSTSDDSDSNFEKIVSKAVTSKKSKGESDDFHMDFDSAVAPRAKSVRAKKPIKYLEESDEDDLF

Vero [4] = assay: Cytostatic activity against african green monkey Vero cells in presence of guanosine; type: ADME, cell-based; conditions: chlorocebus sabaeus
[5] = Inhibition of ATPase activity of HCV […] expressed in Escherichia coli; design: species or system Hepacivirus hominis
Vero [6] = assay: Cytostatic activity against african green monkey Vero cells; type: ADME, cell-based; conditions: chlorocebus sabaeus
[7] = Cytotoxicity against MDBK cells after 3 days by MTS/PMS method; type: cell-based, Bos taurus; conditions: cattle
Hepacivirus hominis = assay: Inhibition of HCV recombinant NS5B RNA polymerase expressed in Escherichia coli up to 100 uM by liquid scintillation counter
Hepatitis C virus = assay: Antiviral activity against HCV infected in human HuH5.2 assessed as inhibition of viral RNA synthesis after 4 days by Steady-Glo-luciferase assay; type: functional, organism-based, Hepacivirus hominis; conditions: Huh-5-2, 96 h

SMILES	IC50 [5]	Activity (Hepacivirus hominis)	EC50 (Hepatitis C virus)	EC50 [1]	CC50 at 72 h [2]	Activity [3]	Activity (Vero [4])	Activity (Vero [6])	CC50 at 72 h [7]
COc1cc(OC)c2c(=O)c3cc(N)c(N4CCN(c5ccccn5)CC4)cc3n(C)c2c1	> 1000 µM	inactive	1.6 mg/L (≈ 3.59 µM)	> 100 mg/L	50 mg/L (≈ 112 µM)	inactive	Non-toxic	Toxic	> 100 mg/L
COc1cc(O)c2c(=O)c3cc(N)c(Cl)cc3n(C)c2c1	> 1000 µM	inactive	14 mg/L (≈ 45.9 µM)	0.7 mg/L (≈ 2.3 µM)	41 mg/L (≈ 135 µM)				14 mg/L (≈ 45.9 µM)
COc1cc(OCC(=O)O)c2c(=O)c3cc(N)c(N4CCN(c5ccccn5)CC4)cc3n(C)c2c1	> 1000 µM	inactive	35 mg/L (≈ 71.5 µM)		> 50 mg/L				
COc1cc(OC)c2c(=O)c3cc(N)c(OC)cc3n(C)c2c1	> 1000 µM	inactive	9 mg/L (≈ 28.6 µM)		> 50 mg/L				
Cn1c2cc(Cl)c(N)cc2c(=O)c2c(O)cc(O)cc21	> 1000 µM	inactive	1.48 mg/L (≈ 5.09 µM)	0.4 mg/L (≈ 1.38 µM)	3 mg/L (≈ 10.3 µM)	inactive			5 mg/L (≈ 17.2 µM)
CCn1c2cc(Cl)c(N)cc2c(=O)c2c(OC)cc(OC)cc21	> 1000 µM	inactive	5 mg/L (≈ 15 µM)		14 mg/L (≈ 42.1 µM)				
Cc1cc(C)c2c(=O)c3cc(N)c(N4CCN(c5ccccn5)CC4)cc3n(C)c2c1C	> 1000 µM	inactive	5 mg/L (≈ 11.7 µM)		> 50 mg/L				
COc1cc(OC)c2c(=O)c3cc(F)c(N4CCN(c5ccccn5)CC4)cc3n(C)c2c1	> 1000 µM	inactive	> 50 mg/L		> 50 mg/L				
COc1cc(OC)c2c(=O)c3cc(N)c(N4CCN(c5ccccn5)CC4)cc3[nH]c2c1	> 1000 µM	inactive	4 mg/L (≈ 9.27 µM)		19 mg/L (≈ 44 µM)				
CCn1c2cc(Cl)c(N)cc2c(=O)c2c(O)cc(O)cc21	> 1000 µM	inactive	5 mg/L (≈ 16.4 µM)		> 50 mg/L				
Cn1ccc(=O)c2cc(N)c(N3CCN(c4ccccn4)CC3)cc21	> 1000 µM	inactive	11 mg/L (≈ 32.8 µM)		> 33 mg/L				
COc1cc(OC)c2c(=O)c3cc(N)c(Cl)cc3n(CCC(C)C)c2c1	> 1000 µM	inactive	> 50 mg/L		> 50 mg/L				
Cn1c2cc(N3CCN(c4ccccn4)CC3)c(N)cc2c(=O)c2c(O)cc(O)cc21	> 1000 µM	inactive	1.7 mg/L (≈ 4.07 µM)	0.5 mg/L (≈ 1.2 µM)	21 mg/L (≈ 50.3 µM)	inactive			> 100 mg/L
COc1cc(OCC(C)C)c2c(=O)c3cc(N)c(N4CCN(c5ccccn5)CC4)cc3n(C)c2c1	> 1000 µM	inactive	3.8 mg/L (≈ 7.79 µM)		27 mg/L (≈ 55.4 µM)		Non-toxic	Toxic	
Nc1cc2c(=O)c3c(O)cc(O)cc3[nH]c2cc1Cl	> 1000 µM	inactive	19 mg/L (≈ 68.7 µM)		25 mg/L (≈ 90.4 µM)				
COc1ccc(C(=O)c2ccc(N3CCN(c4ccccn4)CC3)c(N)c2)c(O)c1	> 1000 µM	inactive	3.7 mg/L (≈ 9.15 µM)		> 50 mg/L				
COc1cc(O)c2c(=O)c3cc(N)c(N4CCN(c5ccccn5)CC4)cc3n(C)c2c1	> 1000 µM	inactive	13 mg/L (≈ 30.1 µM)	4 mg/L (≈ 9.27 µM)	> 50 mg/L				> 100 mg/L
COc1cc(O)c2c(=O)c3cc(N)c(OC)cc3n(C)c2c1	> 1000 µM	inactive	18 mg/L (≈ 59.9 µM)		> 50 mg/L				
COc1cc(O)c2c(=O)c3cc(N)c(N4CCN(c5nc6ccccc6o5)CC4)cc3n(C)c2c1	> 1000 µM	inactive	50 mg/L (≈ 106 µM)		> 50 mg/L				
Cn1c2cc(N3CCN(c4ccccc4)CC3)c(N)cc2c(=O)c2c(O)cc(O)cc21	> 1000 µM	inactive	4.4 mg/L (≈ 10.6 µM)		16.2 mg/L (≈ 38.9 µM)				
Cn1c2ccccc2c(=O)c2cc(N)c(N3CCN(c4ccccn4)CC3)cc21	> 1000 µM	inactive	4 mg/L (≈ 10.4 µM)		29 mg/L (≈ 75.2 µM)				
COc1cc(OC)c2c(=O)c3cc(N)c(Cl)cc3n(C)c2c1	> 1000 µM	inactive	20 mg/L (≈ 62.7 µM)	> 100 mg/L	> 50 mg/L				20 mg/L (≈ 62.7 µM)
COc1cc(OC)c2c(=O)c3cc(N)c(N4CCN(c5nc6ccccc6o5)CC4)cc3n(C)c2c1	> 1000 µM	inactive	27 mg/L (≈ 55.6 µM)		> 50 mg/L				
COc1cc(OC)c2c(=O)c3cc(N)c(N4CCN(c5ccncc5)CC4)cc3n(C)c2c1	> 1000 µM	inactive	5.5 mg/L (≈ 12.3 µM)		> 50 mg/L		Non-toxic	Toxic	
COc1cc(OC)c2c(=O)c3cc(N(C)C)c(N4CCN(c5ccccn5)CC4)cc3n(C)c2c1	> 1000 µM	inactive	1 mg/L (≈ 2.11 µM)		3 mg/L (≈ 6.33 µM)				
CCn1c2cc(N3CCN(c4ccccn4)CC3)c(N)cc2c(=O)c2c(OC)cc(OC)cc21	> 1000 µM	inactive	4 mg/L (≈ 8.7 µM)		11 mg/L (≈ 23.9 µM)				
COc1cc(OC)c2c(=O)c3cc(N)c(Cl)cc3[nH]c2c1	> 1000 µM	inactive	5.7 mg/L (≈ 18.7 µM)		13 mg/L (≈ 42.7 µM)				
CCn1c2cc(Cl)c(N)cc2c(=O)c2c(O)cc(OC)cc21	> 1000 µM	inactive	4.5 mg/L (≈ 14.1 µM)		> 50 mg/L				

The next lines start with results.

IC50 [5]	Activity (Hepacivirus hominis)	EC50 (Hepatitis C virus)	SMILES	EC50 [1]	CC50 at 72 h [2]	Activity [3]	Activity (Vero [4])	Activity (Vero [6])	CC50 at 72 h [7]
> 1000 µM	inactive	0.8 mg/L (≈ 1.93 µM)	COc1ccc2c(=O)c3cc(N)c(N4CCN(c5ccccn5)CC4)cc3n(C)c2c1		11 mg/L (≈ 26.5 µM)				
> 1000 µM	inactive	16 mg/L (≈ 33.7 µM)	COc1cc(OC)c2c(=O)c3cc(N)c(N4CCN(c5ccccc5OC)CC4)cc3n(C)c2c1		> 50 mg/L				
> 1000 µM	inactive	10 mg/L (≈ 19.9 µM)	COc1cc(OC)c2c(=O)c3cc(N)c(N4CCN(c5ccccn5)CC4)cc3n(CCC(C)C)c2c1		10 mg/L (≈ 19.9 µM)				
> 1000 µM	inactive	2.03 mg/L (≈ 4.72 µM)	COc1cc(O)c2c(=O)c3cc(N)c(N4CCN(c5ccccc5)CC4)cc3n(C)c2c1		8.5 mg/L (≈ 19.7 µM)				
> 1000 µM	inactive	> 50 mg/L	COc1cc(OC)c2c(=O)c3cc(N)c(N4CCN(c5ncccn5)CC4)cc3n(C)c2c1		> 50 mg/L				
> 1000 µM	inactive	> 50 mg/L	COc1cc(OC)c2c(=O)c3cc(N)c(N4CCN(c5ccc(C(F)(F)F)cn5)CC4)cc3n(C)c2c1		> 50 mg/L				
> 1000 µM	inactive	12.5 mg/L (≈ 30.1 µM)	COc1cccc2c1c(=O)c1cc(N)c(N3CCN(c4ccccn4)CC3)cc1n2C		28.5 mg/L (≈ 68.6 µM)				
> 1000 µM	inactive	> 50 mg/L	COc1cc(OC)c2c(=O)cc(-c3ccc(N4CCN(c5ccccn5)CC4)c(N)c3)n(C)c2c1		> 50 mg/L				
> 1000 µM	inactive	5 mg/L (≈ 17.5 µM)	COc1cc2c(cc1N)c(=O)c1c(O)cc(O)cc1n2C		26 mg/L (≈ 90.8 µM)				
> 1000 µM	inactive	6 mg/L (≈ 13.5 µM)	COc1cc2c(=O)c3cc(N)c(N4CCN(c5ccccn5)CC4)cc3n(C)c2cc1OC		14 mg/L (≈ 31.4 µM)				
> 1000 µM	inactive	17 mg/L (≈ 37.2 µM)	Cn1c2cc(N3CCN(c4nc5ccccc5o4)CC3)c(N)cc2c(=O)c2c(O)cc(O)cc21		> 50 mg/L				
> 1000 µM	inactive	17 mg/L (≈ 35.9 µM)	CCCOc1cc(OC)cc2c1c(=O)c1cc(N)c(N3CCN(c4ccccn4)CC3)cc1n2C		> 50 mg/L				
> 1000 µM	inactive	8 mg/L (≈ 27.5 µM)	COc1cc(O)c2c(=O)c3cc(N)c(Cl)cc3[nH]c2c1		> 50 mg/L				
> 1000 µM	inactive	6.6 mg/L (≈ 15.8 µM)	COc1ccc(C(=O)c2ccc(N3CCN(c4ccccn4)CC3)c(N)c2)c(OC)c1		15 mg/L (≈ 35.8 µM)				
> 1000 µM	inactive	> 50 mg/L	COc1cc(OC)cc(N(C)c2cc(N3CCN(c4ccccn4)CC3)c(N)cc2C(=O)O)c1		> 50 mg/L				
> 1000 µM	inactive	2.3 mg/L (≈ 5.34 µM)	COc1cc(OC)c2c(=O)c3ccc(N4CCN(c5ccccn5)CC4)cc3n(C)c2c1		> 50 mg/L		Non-toxic	Toxic	
> 1000 µM	inactive	9 mg/L (≈ 20.2 µM)	COc1cc(OC)c2c(=O)c3cc(N)c(N4CCN(c5ccccc5)CC4)cc3n(C)c2c1		34 mg/L (≈ 76.5 µM)				
> 1000 µM	inactive	4.1 mg/L (≈ 9.77 µM)	COc1cc(OC)cc(N(C)c2ccc(N)c(N3CCN(c4ccccn4)CC3)c2)c1		7.2 mg/L (≈ 17.2 µM)				
> 1000 µM	inactive	4 mg/L (≈ 8.7 µM)	CCOc1cc(OC)cc2c1c(=O)c1cc(N)c(N3CCN(c4ccccn4)CC3)cc1n2C		> 50 mg/L				
